Measurements taken from publication PMC12171682, “Saarvienin A—A Novel Glycopeptide with Potent Activity against Drug‐Resistant Bacteria” (Angewandte Chemie (International Ed. in English), 2025).
Read-outs that look alike come from different tables or passages of the source.

Tests used:
E. faecalis ATCC 29212 [1] = test: microbe, parasite or virus in culture; conditions: Enterococcus faecalis, ATCC29212, 24 h, read-out: MIC, E. faecalis ATCC29212
[2] = system: vancomycin‐resistant E. faecium clinical isolates with reduced susceptibility to daptomycin (n = 26); test: microbe, parasite or virus in culture; conditions: Enterococcus faecium; for MIC: 24 h
[3] = system: vancomycin‐resistant E. faecium clinical isolates with reduced susceptibility to daptomycin (n = 26)
E. faecalis ATCC 29212 [4] = conditions: reference strain in Table S5; broth microdilution, MHB II, 37 °C, 24 h; daptomycin with 50 µg/mL Ca2+; mean of two independent experiments

CC1(C)S[C@@H]2[C@H](NC(=O)[C@H](N)c3ccccc3)C(=O)N2[C@H]1C(=O)O [Ampicillin]
64 µg/mL: MIC ([2]; read-out: MIC, Enterococcus faecium isolate 3)
2 µg/mL: MIC (E. faecalis ATCC 29212 [1])
> 64 µg/mL: MIC ([2]; read-out: MIC, Enterococcus faecium isolate 1) | MIC ([2]; read-out: MIC, Enterococcus faecium isolate 2) | MIC ([2]; read-out: MIC, Enterococcus faecium isolate 4) | MIC ([2]; read-out: MIC, Enterococcus faecium isolate 5) | MIC ([2]; read-out: MIC, Enterococcus faecium isolate 6) | MIC ([2]; read-out: MIC, Enterococcus faecium isolate 7) | MIC ([2]; read-out: MIC, Enterococcus faecium isolate 8) | MIC ([2]; read-out: MIC, Enterococcus faecium isolate 9) | MIC ([2]; read-out: MIC, Enterococcus faecium isolate 10) | MIC ([2]; read-out: MIC, Enterococcus faecium isolate 11) | MIC ([2]; read-out: MIC, Enterococcus faecium isolate 12) | MIC ([2]; read-out: MIC, Enterococcus faecium isolate 13) | MIC ([2]; read-out: MIC, Enterococcus faecium isolate 14) | MIC ([2]; read-out: MIC, Enterococcus faecium isolate 15) | MIC ([2]; read-out: MIC, Enterococcus faecium isolate 16) | MIC ([2]; read-out: MIC, Enterococcus faecium isolate 17) | MIC ([2]; read-out: MIC, Enterococcus faecium isolate 18) | MIC ([2]; read-out: MIC, Enterococcus faecium isolate 19) | MIC ([2]; read-out: MIC, Enterococcus faecium isolate 20) | MIC ([2]; read-out: MIC, Enterococcus faecium isolate 21) | MIC ([2]; read-out: MIC, Enterococcus faecium isolate 22) | MIC ([2]; read-out: MIC, Enterococcus faecium isolate 23) | MIC ([2]; read-out: MIC, Enterococcus faecium isolate 24) | MIC ([2]; read-out: MIC, Enterococcus faecium isolate 25) | MIC ([2]; read-out: MIC, Enterococcus faecium isolate 26) | MIC50 ([2]; VRE) | MIC90 ([2]; VRE)

O=C(O)c1cn(C2CC2)c2cc(N3CCNCC3)c(F)cc2c1=O [Ciprofloxacin]
2 µg/mL: MIC (E. faecalis ATCC 29212 [1])

CCCCCCCCCC(=O)N[C@@H](Cc1c[nH]c2ccccc12)C(=O)N[C@H](CC(N)=O)C(=O)N[C@@H](CC(=O)O)C(=O)N[C@@H]1C(=O)NCC(=O)N[C@@H](CCCN)C(=O)N[C@@H](CC(=O)O)C(=O)N[C@H](C)C(=O)N[C@@H](CC(=O)O)C(=O)NCC(=O)N[C@H](CO)C(=O)N[C@@H]([C@H](C)CC(=O)O)C(=O)N[C@@H](CC(=O)c2ccccc2N)C(=O)O[C@@H]1C [Daptomycin, daptomycin]
4 µg/mL: MIC, E. faecalis ATCC29212 (E. faecalis ATCC 29212 [4])
8 to 16 µg/mL: MIC Range ([3]; 24 h)
8 µg/mL: MIC50 ([3]; 24 h) | MIC90 ([3]; 24 h) | MIC, Enterococcus faecium isolate 1 ([3]; 24 h) | MIC, Enterococcus faecium isolate 2 ([3]; 24 h) | MIC, Enterococcus faecium isolate 3 ([3]; 24 h) | MIC, Enterococcus faecium isolate 4 ([3]; 24 h) | MIC, Enterococcus faecium isolate 5 ([3]; 24 h) | MIC, Enterococcus faecium isolate 6 ([3]; 24 h) | MIC, Enterococcus faecium isolate 7 ([3]; 24 h) | MIC, Enterococcus faecium isolate 8 ([3]; 24 h) | MIC, Enterococcus faecium isolate 9 ([3]; 24 h) | MIC, Enterococcus faecium isolate 10 ([3]; 24 h) | MIC, Enterococcus faecium isolate 11 ([3]; 24 h) | MIC, Enterococcus faecium isolate 12 ([3]; 24 h) | MIC, Enterococcus faecium isolate 13 ([3]; 24 h) | MIC, Enterococcus faecium isolate 14 ([3]; 24 h) | MIC, Enterococcus faecium isolate 15 ([3]; 24 h) | MIC, Enterococcus faecium isolate 16 ([3]; 24 h) | MIC, Enterococcus faecium isolate 17 ([3]; 24 h) | MIC, Enterococcus faecium isolate 18 ([3]; 24 h) | MIC, Enterococcus faecium isolate 19 ([3]; 24 h) | MIC, Enterococcus faecium isolate 20 ([3]; 24 h) | MIC, Enterococcus faecium isolate 21 ([3]; 24 h) | MIC, Enterococcus faecium isolate 22 ([3]; 24 h) | MIC, Enterococcus faecium isolate 23 ([3]; 24 h) | MIC, Enterococcus faecium isolate 26 ([3]; 24 h)
16 µg/mL: MIC, Enterococcus faecium isolate 24 ([3]; 24 h) | MIC, Enterococcus faecium isolate 25 ([3]; 24 h)

teicoplanin
64 µg/mL: MIC50 ([3]; 26 VRE E. faecium clinical isolates, broth microdilution, MHB II, daptomycin with 50 µg/mL Ca2+, mean of two independent experiments) | MIC, Enterococcus faecium isolate 1 ([3]; clinical isolate 1, broth microdilution, MHB II, 37 °C, 24 h, daptomycin with 50 µg/mL Ca2+, mean of two independent experiments) | MIC, Enterococcus faecium isolate 6 ([3]; clinical isolate 6, broth microdilution, MHB II, 37 °C, 24 h, daptomycin with 50 µg/mL Ca2+, mean of two independent experiments) | MIC, Enterococcus faecium isolate 8 ([3]; clinical isolate 8, broth microdilution, MHB II, 37 °C, 24 h, daptomycin with 50 µg/mL Ca2+, mean of two independent experiments) | MIC, Enterococcus faecium isolate 12 ([3]; clinical isolate 12, broth microdilution, MHB II, 37 °C, 24 h, daptomycin with 50 µg/mL Ca2+, mean of two independent experiments) | MIC, Enterococcus faecium isolate 15 ([3]; clinical isolate 15, broth microdilution, MHB II, 37 °C, 24 h, daptomycin with 50 µg/mL Ca2+, mean of two independent experiments) | MIC, Enterococcus faecium isolate 17 ([3]; clinical isolate 17, broth microdilution, MHB II, 37 °C, 24 h, daptomycin with 50 µg/mL Ca2+, mean of two independent experiments) | MIC, Enterococcus faecium isolate 19 ([3]; clinical isolate 19, broth microdilution, MHB II, 37 °C, 24 h, daptomycin with 50 µg/mL Ca2+, mean of two independent experiments) | MIC, Enterococcus faecium isolate 20 ([3]; clinical isolate 20, broth microdilution, MHB II, 37 °C, 24 h, daptomycin with 50 µg/mL Ca2+, mean of two independent experiments) | MIC, Enterococcus faecium isolate 22 ([3]; clinical isolate 22, broth microdilution, MHB II, 37 °C, 24 h, daptomycin with 50 µg/mL Ca2+, mean of two independent experiments)
2 µg/mL: MIC, Enterococcus faecium isolate 3 ([3]; clinical isolate 3, broth microdilution, MHB II, 37 °C, 24 h, daptomycin with 50 µg/mL Ca2+, mean of two independent experiments) | MIC, Enterococcus faecium isolate 4 ([3]; clinical isolate 4, broth microdilution, MHB II, 37 °C, 24 h, daptomycin with 50 µg/mL Ca2+, mean of two independent experiments)
0.5 µg/mL: MIC, E. faecalis ATCC29212 (E. faecalis ATCC 29212 [4])
> 64 µg/mL: MIC, Enterococcus faecium isolate 5 ([3]; clinical isolate 5, broth microdilution, MHB II, 37 °C, 24 h, daptomycin with 50 µg/mL Ca2+, mean of two independent experiments) | MIC, Enterococcus faecium isolate 9 ([3]; clinical isolate 9, broth microdilution, MHB II, 37 °C, 24 h, daptomycin with 50 µg/mL Ca2+, mean of two independent experiments) | MIC, Enterococcus faecium isolate 10 ([3]; clinical isolate 10, broth microdilution, MHB II, 37 °C, 24 h, daptomycin with 50 µg/mL Ca2+, mean of two independent experiments) | MIC, Enterococcus faecium isolate 21 ([3]; clinical isolate 21, broth microdilution, MHB II, 37 °C, 24 h, daptomycin with 50 µg/mL Ca2+, mean of two independent experiments) | MIC, Enterococcus faecium isolate 23 ([3]; clinical isolate 23, broth microdilution, MHB II, 37 °C, 24 h, daptomycin with 50 µg/mL Ca2+, mean of two independent experiments) | MIC, Enterococcus faecium isolate 24 ([3]; clinical isolate 24, broth microdilution, MHB II, 37 °C, 24 h, daptomycin with 50 µg/mL Ca2+, mean of two independent experiments) | MIC, Enterococcus faecium isolate 25 ([3]; clinical isolate 25, broth microdilution, MHB II, 37 °C, 24 h, daptomycin with 50 µg/mL Ca2+, mean of two independent experiments) | MIC, Enterococcus faecium isolate 26 ([3]; clinical isolate 26, broth microdilution, MHB II, 37 °C, 24 h, daptomycin with 50 µg/mL Ca2+, mean of two independent experiments)
32 µg/mL: MIC, Enterococcus faecium isolate 2 ([3]; clinical isolate 2, broth microdilution, MHB II, 37 °C, 24 h, daptomycin with 50 µg/mL Ca2+, mean of two independent experiments) | MIC, Enterococcus faecium isolate 7 ([3]; clinical isolate 7, broth microdilution, MHB II, 37 °C, 24 h, daptomycin with 50 µg/mL Ca2+, mean of two independent experiments) | MIC, Enterococcus faecium isolate 11 ([3]; clinical isolate 11, broth microdilution, MHB II, 37 °C, 24 h, daptomycin with 50 µg/mL Ca2+, mean of two independent experiments) | MIC, Enterococcus faecium isolate 13 ([3]; clinical isolate 13, broth microdilution, MHB II, 37 °C, 24 h, daptomycin with 50 µg/mL Ca2+, mean of two independent experiments) | MIC, Enterococcus faecium isolate 14 ([3]; clinical isolate 14, broth microdilution, MHB II, 37 °C, 24 h, daptomycin with 50 µg/mL Ca2+, mean of two independent experiments) | MIC, Enterococcus faecium isolate 16 ([3]; clinical isolate 16, broth microdilution, MHB II, 37 °C, 24 h, daptomycin with 50 µg/mL Ca2+, mean of two independent experiments) | MIC, Enterococcus faecium isolate 18 ([3]; clinical isolate 18, broth microdilution, MHB II, 37 °C, 24 h, daptomycin with 50 µg/mL Ca2+, mean of two independent experiments)
